Experimental data from patent US20040033899A1, “5[(pyrazol-4-yl)carbonyl]benzazolone as herbicide” (priority 2000, published 2004).
Blank lines part the entries; values can stand above or below the compound they belong to.

How the values were obtained:
[1] = system: AMARE; assay: greenhouse post-emergence herbicidal test; format: in vivo, redroot pigweed
From the text: (§1) The seeds of the test plants were sown separately for each species. For the post-emergence treatment, the test plants were first grown to a plant height of from 3 to 15 cm, depending on the plant habit, and only then treated with the active compounds which had been suspended or emulsified in water. To this end, the test plants were either sown directly and grown in the same containers, or they were first grown separately as seedlings and transplanted into the test containers a few days prior to treatment. The rate of application for the post-emergence treatment was 31.3, 62.5, 125 and/or 250 g of a.s. (active substance) /ha. Depending on the species, the plants were kept at from 10 to 25° C., or 20-35° C., respectively. The test period extended over 2 to 4 weeks. During this time, the plants were tended, and their response to the individual treatments was evaluated. Evaluation was carried out using a scale of from 0 to 100. 100 means no emergence of the plants, or complete destruction of at least the aerial parts, and 0 means no damage, or normal course of growth. A damage of at least 95% corresponds to very good herbicidal action. The plants used in the greenhouse experiments were of the following species: [table]

[2] = system: BRAPL; assay: greenhouse post-emergence herbicidal test; format: in vivo, marmelade grass
From the text: as §1

[3] = system: POLPE; assay: greenhouse post-emergence herbicidal test; format: in vivo, ladysthumb
From the text: as §1

[4] = system: STEME; assay: greenhouse post-emergence herbicidal test; format: in vivo, chickweed; conditions: 31.3 or 62.5 g/ha (a.s.)
From the text: as §1

[5] = system: THLAR; assay: greenhouse post-emergence herbicidal test; format: in vivo, pennycress; conditions: 31.3 or 62.5 g/ha (a.s.)
From the text: as §1

[6] = system: PHBPU; assay: greenhouse post-emergence herbicidal test; format: in vivo, morningglory, common; conditions: 125 or 250 g/ha (a.s.)
From the text: as §1

[7] = system: PAPRH; assay: greenhouse post-emergence herbicidal test; format: in vivo, cornpoppy; conditions: 31.3 or 62.5 g/ha (a.s.)
From the text: as §1

[8] = system: BIDPI; assay: greenhouse post-emergence herbicidal test; format: in vivo, hairy beggarticks; conditions: 125 or 250 g/ha (a.s.)
From the text: as §1

[9] = system: ECHCG; assay: greenhouse post-emergence herbicidal test; format: in vivo, barnyardgrass; conditions: 125 or 250 g/ha (a.s.)
From the text: as §1

[10] = system: CHEAL; assay: greenhouse post-emergence herbicidal test; format: in vivo, lambsquarters (goosefoot); conditions: 125 or 250 g/ha (a.s.)
From the text: as §1

[11] = system: SETFA; assay: greenhouse post-emergence herbicidal test; format: in vivo, giant foxtail; conditions: 125 or 250 g/ha (a.s.)
From the text: as §1

Compound: CCn1c(=O)sc2ccc(C(=O)c3cnn(C)c3O)c(C)c21 [Example I-1a.1131]
herbicidal action against AMARE ([1]; 125 or 250 g/ha (a.s.)): very good herbicidal action (A damage of at least 95% corresponds to very good herbicidal action)
herbicidal action against BRAPL ([2]; 125 or 250 g/ha (a.s.)): very good herbicidal action (A damage of at least 95% corresponds to very good herbicidal action)

Compound: Cc1c(C(=O)c2cnn(C)c2OCc2ccccc2)ccc2sc(=O)n(Cc3ccccc3)c12 [Example 35]
melting point: 150 to 151 °C

Compound: Cc1c(C(=O)c2cnn(C(C)C)c2O)ccc2sc(=O)n(C)c12 [Example I-1c.1129, 3,4-dimethyl-5-(5′-hydroxy-1′-isopropylpyrazol-4-yl)carbonylbenzothiazol-2-one]
herbicidal action against AMARE ([1]; 31.3 or 62.5 g/ha (a.s.)): very good herbicidal action (A damage of at least 95% corresponds to very good herbicidal action)
herbicidal action against POLPE ([3]; 31.3 or 62.5 g/ha (a.s.)): very good herbicidal action (A damage of at least 95% corresponds to very good herbicidal action)

Compound: CCn1c(=O)sc2ccc(C(=O)c3cnn(C(C)(C)C)c3O)c(C)c21 [Example I-1d.1131]
herbicidal action against AMARE ([1]; 125 or 250 g/ha (a.s.)): very good herbicidal action (A damage of at least 95% corresponds to very good herbicidal action)
herbicidal action against BRAPL ([2]; 125 or 250 g/ha (a.s.)): very good herbicidal action (A damage of at least 95% corresponds to very good herbicidal action)

Compound: CCn1c(=O)sc2ccc(C(=O)c3cnn(C(C)C)c3O)c(C)c21 [Example I-1c.1131]
herbicidal action against AMARE ([1]; 125 or 250 g/ha (a.s.)): very good herbicidal action (A damage of at least 95% corresponds to very good herbicidal action)
herbicidal action against BRAPL ([2]; 125 or 250 g/ha (a.s.)): very good herbicidal action (A damage of at least 95% corresponds to very good herbicidal action)

Compound: Cc1c(C(=O)c2cnn(C)c2O)ccc2sc(=O)n(C)c12 [Example I-1a.1129, 3,4-dimethyl-5-(5′-hydroxy-1′-methyl-pyrazol-4-yl)carbonyl benzothiazol-2-one]
herbicidal action against STEME [4]: very good herbicidal action (A damage of at least 95% corresponds to very good herbicidal action)
herbicidal action against THLAR [5]: very good herbicidal action (A damage of at least 95% corresponds to very good herbicidal action)

Compound: CCn1c(=O)sc2ccc(C(=O)c3cnn(C(C)(C)C)c3OCc3ccccc3)c(C)c21 [Example I-1y.1131]
herbicidal action against PHBPU [6]: very good herbicidal action (A damage of at least 95% corresponds to very good herbicidal action)
herbicidal action against BRAPL ([2]; 125 or 250 g/ha (a.s.)): very good herbicidal action (A damage of at least 95% corresponds to very good herbicidal action)

Compound: CCn1ncc(C(=O)c2ccc3sc(=O)n(C)c3c2C)c1O [Example I-1b.1129, 3,4-dimethyl-5-(5′-hydroxy-1′-ethylpyrazol-4-yl)carbonylbenzothiazol-2-one]
herbicidal action against PARPH [7]: very good herbicidal action (A damage of at least 95% corresponds to very good herbicidal action)
herbicidal action against STEME [4]: very good herbicidal action (A damage of at least 95% corresponds to very good herbicidal action)
herbicidal action against THLAR [5]: very good herbicidal action (A damage of at least 95% corresponds to very good herbicidal action)

Compound: CCCCn1c(=O)oc2ccc(C(=O)c3cnn(C)c3O)c(C)c21 [Example I-1a.6]
herbicidal action against BIDPI [8]: very good herbicidal action (A damage of at least 95% corresponds to very good herbicidal action)
herbicidal action against POLPE ([3]; 125 or 250 g/ha (a.s.)): very good herbicidal action (A damage of at least 95% corresponds to very good herbicidal action)

Compound: CCn1ncc(C(=O)c2ccc3sc(=O)n(CC)c3c2C)c1O [Example I-1b.1131]
herbicidal action against AMARE ([1]; 125 or 250 g/ha (a.s.)): very good herbicidal action (A damage of at least 95% corresponds to very good herbicidal action)
herbicidal action against BRAPL ([2]; 125 or 250 g/ha (a.s.)): very good herbicidal action (A damage of at least 95% corresponds to very good herbicidal action)

Compound: CCn1c(=O)sc2ccc(C(=O)c3cnn(C)c3OCc3ccccc3)c(C)c21 [Example I-1g.1131]
herbicidal action against AMARE ([1]; 125 or 250 g/ha (a.s.)): very good-herbicidal action
herbicidal action against ECHCG [9]: very good-herbicidal action
herbicidal action against CHEAL [10]: very good-herbicidal action
herbicidal action against BRAPL ([2]; 125 or 250 g/ha (a.s.)): very good-herbicidal action
herbicidal action against SETFA [11]: very good-herbicidal action

Compound: CCCn1c(=O)oc2ccc(C(=O)c3cnn(C)c3O)c(C)c21 [Example I-1a.4]
herbicidal action against AMARE ([1]; 125 or 62.5 g/ha (a.s.)): very good herbicidal action (A damage of at least 95% corresponds to very good herbicidal action)
herbicidal action against BRAPL ([2]; 125 or 62.5 g/ha (a.s.)): very good herbicidal action (A damage of at least 95% corresponds to very good herbicidal action)

Compound: CCn1ncc(C(=O)c2ccc3sc(=O)n(CC)c3c2C)c1OCc1ccccc1 [Example I-1h.1131]
herbicidal action against AMARE ([1]; 125 or 250 g/ha (a.s.)): very good herbicidal action (A damage of at least 95% corresponds to very good herbicidal action)
herbicidal action against BRAPL ([2]; 125 or 250 g/ha (a.s.)): very good herbicidal action (A damage of at least 95% corresponds to very good herbicidal action)

Compound: Cc1c(C(=O)c2cnn(C(C)C)c2OCc2ccccc2)ccc2sc(=O)n(CC3OCCO3)c12 [Example 24]
melting point: 133 to 134 °C

The next lines start with the values.

melting point: 153 to 156 °C
Compound: Cc1nn(C)c(O)c1C(=O)c1ccc2sc(=O)n(Cc3ccccc3)c2c1C [Example 18]

melting point: 155 to 158 °C
Compound: C=CCn1c(=O)sc2ccc(C(=O)c3cnn(C)c3O)c(C)c21 [Example 4]

melting point: 65 to 71 °C
Compound: Cc1c(C(=O)c2cnn(C)c2O)ccc2sc(=O)n(Cc3ccccc3)c12 [Example 16]

melting point: 140 to 147 °C
Compound: CC#CCn1c(=O)sc2ccc(C(=O)c3cnn(C)c3O)c(C)c21 [Example 20]

melting point: 142 to 144 °C
Compound: Cc1c(C(=O)c2cnn(C(C)C)c2O)ccc2sc(=O)n(Cc3ccccc3)c12 [Example 17]

melting point: 105 to 107 °C
Compound: CCCCCn1c(=O)sc2ccc(C(=O)c3cnn(C(C)C)c3O)c(C)c21 [Example 39]

melting point: 104 to 105 °C
Compound: CCCn1c(=O)oc2ccc(C(=O)c3cnn(C(C)C)c3O)c(C)c21 [Example 27]

melting point: 54 to 58 °C
Compound: Cc1c(C(=O)c2cnn(C(C)C)c2O)ccc2sc(=O)n(CC3OCCO3)c12 [Example 23]

melting point: 135 to 137 °C
Compound: CCCn1c(=O)sc2ccc(C(=O)c3cnn(C)c3O)c(C)c21 [Example 15]

melting point: 54 to 60 °C
Compound: CC#CCn1c(=O)sc2ccc(C(=O)c3cnn(C(C)C)c3O)c(C)c21 [Example 21]

melting point: 156 to 157 °C
Compound: CCn1c(=O)oc2ccc(C(=O)c3cnn(C)c3O)c(C)c21 [Example 8]

melting point: 150 to 151 °C
Compound: Cc1c(C(=O)c2cnn(C)c2O)ccc2oc(=O)n(CC(C)C)c12 [Example 26]

melting point: 200 to 203 °C
Compound: Cc1c(C(=O)c2cnn(C)c2O)ccc2oc(=O)n(C)c12 [Example 6]

melting point: 79 to 89 °C
Compound: COc1cccc(Cn2c(=O)sc3ccc(C(=O)c4cnn(C)c4O)c(C)c32)c1 [Example 45]

melting point: 71 to 74 °C
Compound: COc1cccc(Cn2c(=O)sc3ccc(C(=O)c4cnn(C(C)C)c4O)c(C)c32)c1 [Example 44]

melting point: 127 to 129 °C
Compound: C=CCn1c(=O)oc2ccc(C(=O)c3cnn(C)c3O)c(C)c21 [Example 7]

melting point: 56 to 61 °C
Compound: CCCn1c(=O)sc2ccc(C(=O)c3c(C)nn(C)c3O)c(C)c21 [Example 28]
